Reference: ChEMBL document CHEMBL4507316 (2021)
The source made the active and inactive calls. The calls are words filed in the database; no cut-off is given here.

Key:
[1] = molecular target: Serine/threonine-protein kinase Chk1 (Homo sapiens) (UniProt O14757); test: CHK1 ProQinase selectivity panel; details: Compound concentration 1.0 uM
[2] = molecular target: Protein kinase C delta type (Homo sapiens) (UniProt Q05655); test: PKC-delta ProQinase selectivity panel; details: Compound concentration 1.0 uM
[3] = molecular target: Serine/threonine-protein kinase 26 (Homo sapiens) (UniProt Q9P289); test: MST4 ProQinase selectivity panel; details: Compound concentration 1.0 uM
[4] = tested on: Platelet-derived growth factor receptor alpha (Homo sapiens), P16234 [V561D]; test: PDGFR-alpha V561D ProQinase selectivity panel; details: Compound concentration 1.0 uM
[5] = tested on: Tyrosine-protein kinase ABL1 (Homo sapiens), P00519 [Q252H]; test: ABL1 Q252H ProQinase selectivity panel; details: Compound concentration 1.0 uM
[6] = molecular target: MAP kinase-activated protein kinase 2 (Homo sapiens) (UniProt P49137); test: MAPKAPK2 ProQinase selectivity panel; details: Compound concentration 1.0 uM
[7] = molecular target: Serine/threonine-protein kinase pim-2 (Homo sapiens) (UniProt Q9P1W9); test: PIM2 ProQinase selectivity panel; details: Compound concentration 1.0 uM
[8] = tested on: Hepatocyte growth factor receptor (Homo sapiens), P08581 [Y1230D]; test: MET Y1230D ProQinase selectivity panel; details: Compound concentration 1.0 uM
[9] = molecular target: SRSF protein kinase 3 (Homo sapiens) (UniProt Q9UPE1); test: STK23 ProQinase selectivity panel; details: Compound concentration 1.0 uM
[10] = molecular target: Mitogen-activated protein kinase kinase kinase kinase 2 (Homo sapiens) (UniProt Q12851); test: MAP4K2 ProQinase selectivity panel; details: Compound concentration 1.0 uM
[11] = molecular target: Serine/threonine-protein kinase NLK (Homo sapiens) (UniProt Q9UBE8); test: NLK ProQinase selectivity panel; details: Compound concentration 1.0 uM
[12] = tested on: Mast/stem cell growth factor receptor Kit (Homo sapiens), P10721 [T670I]; test: KIT T670I ProQinase selectivity panel; details: Compound concentration 1.0 uM
[13] = molecular target: Rho-associated protein kinase 2 (Homo sapiens) (UniProt O75116); test: ROCK2 ProQinase selectivity panel; details: Compound concentration 1.0 uM
[14] = molecular target: Muscarinic acetylcholine receptor M2 (Homo sapiens) (UniProt P08172); details: Compound concentration 10.0 uM
[15] = molecular target: Tyrosine-protein kinase CSK (Homo sapiens) (UniProt P41240); test: CSK ProQinase selectivity panel; details: Compound concentration 1.0 uM
[16] = tested on: Platelet-derived growth factor receptor alpha (Homo sapiens), P16234 [T674I]; test: PDGFR-alpha T674I ProQinase selectivity panel; details: Compound concentration 1.0 uM
[17] = molecular target: Vascular endothelial growth factor receptor 2 (Homo sapiens) (UniProt P35968); test: VEGF-R2 ProQinase selectivity panel; details: Compound concentration 1.0 uM
[18] = tested on: Fibroblast growth factor receptor 1 (Homo sapiens), P11362 [V561M]; test: FGF-R1 V561M ProQinase selectivity panel; details: Compound concentration 1.0 uM
[19] = molecular target: 5-hydroxytryptamine receptor 2A (Homo sapiens, UniProt P28223); details: Compound concentration 10.0 uM
[20] = tested on: Tyrosine-protein kinase ABL1 (Homo sapiens), P00519 [M351T]; test: ABL1 M351T ProQinase selectivity panel; details: Compound concentration 1.0 uM
[21] = molecular target: Serine/threonine-protein kinase BRSK1 (Homo sapiens) (UniProt Q8TDC3); test: BRSK1 ProQinase selectivity panel; details: Compound concentration 1.0 uM
[22] = molecular target: Sodium-dependent dopamine transporter (Homo sapiens, UniProt Q01959); details: Compound concentration 10.0 uM
[23] = tested on: Hepatocyte growth factor receptor (Homo sapiens), P08581 [Y1230A]; test: MET Y1230A ProQinase selectivity panel; details: Compound concentration 1.0 uM
[24] = molecular target: Tyrosine-protein kinase Srms (Homo sapiens) (UniProt Q9H3Y6); test: SRMS ProQinase selectivity panel; details: Compound concentration 1.0 uM
[25] = molecular target: Inhibitor of nuclear factor kappa-B kinase subunit beta (Homo sapiens) (UniProt O14920); test: IKK-beta ProQinase selectivity panel; details: Compound concentration 1.0 uM
[26] = molecular target: Tyrosine-protein kinase Fer (Homo sapiens) (UniProt P16591); test: FER ProQinase selectivity panel; details: Compound concentration 1.0 uM
[27] = molecular target: 5-hydroxytryptamine receptor 1E (Homo sapiens) (UniProt P28566); details: Compound concentration 10.0 uM
[28] = molecular target: MAP/microtubule affinity-regulating kinase 4 (Homo sapiens) (UniProt Q96L34); test: MARK4 ProQinase selectivity panel; details: Compound concentration 1.0 uM
[29] = molecular target: 5-hydroxytryptamine receptor 7 (Homo sapiens) (UniProt P34969); details: Compound concentration 10.0 uM
[30] = molecular target: Serine/threonine-protein kinase Nek7 (Homo sapiens) (UniProt Q8TDX7); test: NEK7 ProQinase selectivity panel; details: Compound concentration 1.0 uM
[31] = molecular target: Ephrin type-A receptor 5 (Homo sapiens) (UniProt P54756); test: EPHA5 ProQinase selectivity panel; details: Compound concentration 1.0 uM
[32] = molecular target: Mitogen-activated protein kinase 11 (Homo sapiens, UniProt Q15759); test: NanoBRET (MAPK11)
[33] = molecular target: Serine/threonine-protein kinase Nek11 (Homo sapiens) (UniProt Q8NG66); test: NEK11 ProQinase selectivity panel; details: Compound concentration 1.0 uM
[34] = molecular target: ALK tyrosine kinase receptor (Homo sapiens) (UniProt Q9UM73); test: ALK ProQinase selectivity panel; details: Compound concentration 1.0 uM
[35] = molecular target: Tyrosine-protein kinase JAK3 (Homo sapiens) (UniProt P52333); test: JAK3 ProQinase selectivity panel; details: Compound concentration 1.0 uM
[36] = molecular target: Alpha-2A adrenergic receptor (Homo sapiens) (UniProt P08913); details: Compound concentration 10.0 uM
[37] = tested on: Tyrosine-protein kinase ABL1 (Homo sapiens), P00519 [Y253F]; test: ABL1 Y253F ProQinase selectivity panel; details: Compound concentration 1.0 uM
[38] = molecular target: Dual specificity mitogen-activated protein kinase kinase 1 (Homo sapiens) (UniProt Q02750); test: MEK1 ProQinase selectivity panel; details: Compound concentration 1.0 uM
[39] = molecular target: Aurora kinase A (Homo sapiens) (UniProt O14965); test: Aurora-A ProQinase selectivity panel; details: Compound concentration 1.0 uM
[40] = molecular target: Serine/threonine-protein kinase Nek2 (Homo sapiens) (UniProt P51955); test: NEK2 ProQinase selectivity panel; details: Compound concentration 1.0 uM
[41] = molecular target: Maternal embryonic leucine zipper kinase (Homo sapiens) (UniProt Q14680); test: MELK ProQinase selectivity panel; details: Compound concentration 1.0 uM
[42] = tested on: Tyrosine-protein kinase ABL1 (Homo sapiens), P00519 [T315I]; test: ABL1 T315I ProQinase selectivity panel; details: Compound concentration 1.0 uM
[43] = tested on: Fibroblast growth factor receptor 3 (Homo sapiens), P22607 [K650E]; test: FGF-R3 K650E ProQinase selectivity panel; details: Compound concentration 1.0 uM
[44] = molecular target: Serine/threonine-protein kinase Sgk3 (Homo sapiens) (UniProt Q96BR1); test: SGK3 ProQinase selectivity panel; details: Compound concentration 1.0 uM
[45] = molecular target: Serine/threonine-protein kinase Nek4 (Homo sapiens) (UniProt P51957); test: NEK4 ProQinase selectivity panel; details: Compound concentration 1.0 uM
[46] = molecular target: Serine/threonine-protein kinase PAK 4 (Homo sapiens) (UniProt O96013); test: PAK4 ProQinase selectivity panel; details: Compound concentration 1.0 uM
[47] = molecular target: Dual specificity tyrosine-phosphorylation-regulated kinase 4 (Homo sapiens) (UniProt Q9NR20); test: DYRK4 ProQinase selectivity panel; details: Compound concentration 1.0 uM
[48] = molecular target: Alpha-1D adrenergic receptor (Homo sapiens) (UniProt P25100); details: Compound concentration 10.0 uM
[49] = molecular target: Ephrin type-B receptor 3 (Homo sapiens) (UniProt P54753); test: EPHB3 ProQinase selectivity panel; details: Compound concentration 1.0 uM

Tyrosine-protein kinase Fer (Homo sapiens), sequence (P16591 whole entry, looked up): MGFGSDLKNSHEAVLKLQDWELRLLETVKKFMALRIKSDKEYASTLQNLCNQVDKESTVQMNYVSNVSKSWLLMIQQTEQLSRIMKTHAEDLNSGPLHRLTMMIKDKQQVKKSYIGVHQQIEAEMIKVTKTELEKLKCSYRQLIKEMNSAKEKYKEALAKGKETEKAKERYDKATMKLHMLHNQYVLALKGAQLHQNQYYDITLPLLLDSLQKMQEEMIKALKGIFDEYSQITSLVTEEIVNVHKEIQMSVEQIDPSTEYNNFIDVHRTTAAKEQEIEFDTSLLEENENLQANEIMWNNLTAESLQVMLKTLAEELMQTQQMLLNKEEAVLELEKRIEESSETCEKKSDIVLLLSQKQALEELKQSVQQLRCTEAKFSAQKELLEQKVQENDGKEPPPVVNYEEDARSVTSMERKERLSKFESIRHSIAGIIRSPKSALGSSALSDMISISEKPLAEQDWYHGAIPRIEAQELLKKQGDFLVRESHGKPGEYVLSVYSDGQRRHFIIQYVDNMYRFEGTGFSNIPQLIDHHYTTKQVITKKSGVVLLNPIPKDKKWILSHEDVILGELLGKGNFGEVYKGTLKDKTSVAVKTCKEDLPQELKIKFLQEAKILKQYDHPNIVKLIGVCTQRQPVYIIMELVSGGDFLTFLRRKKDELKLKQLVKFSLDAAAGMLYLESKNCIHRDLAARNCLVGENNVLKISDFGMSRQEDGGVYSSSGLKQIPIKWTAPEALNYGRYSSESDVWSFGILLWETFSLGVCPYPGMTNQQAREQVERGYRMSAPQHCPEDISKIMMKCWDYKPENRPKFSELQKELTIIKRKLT
Serine/threonine-protein kinase 26 (Homo sapiens), sequence (Q9P289 2-416 limits assumed): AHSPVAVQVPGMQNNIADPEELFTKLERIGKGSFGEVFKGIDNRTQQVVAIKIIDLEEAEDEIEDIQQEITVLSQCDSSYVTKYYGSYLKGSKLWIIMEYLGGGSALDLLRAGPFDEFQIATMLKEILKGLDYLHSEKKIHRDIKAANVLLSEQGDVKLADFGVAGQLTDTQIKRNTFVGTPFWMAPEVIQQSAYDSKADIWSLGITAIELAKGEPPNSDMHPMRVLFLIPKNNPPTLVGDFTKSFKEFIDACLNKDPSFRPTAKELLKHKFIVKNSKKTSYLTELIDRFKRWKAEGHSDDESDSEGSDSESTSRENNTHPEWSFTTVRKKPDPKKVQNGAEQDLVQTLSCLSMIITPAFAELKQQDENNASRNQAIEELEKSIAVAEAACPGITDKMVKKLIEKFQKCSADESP
Mitogen-activated protein kinase kinase kinase kinase 2 (Homo sapiens), sequence (Q12851 whole entry): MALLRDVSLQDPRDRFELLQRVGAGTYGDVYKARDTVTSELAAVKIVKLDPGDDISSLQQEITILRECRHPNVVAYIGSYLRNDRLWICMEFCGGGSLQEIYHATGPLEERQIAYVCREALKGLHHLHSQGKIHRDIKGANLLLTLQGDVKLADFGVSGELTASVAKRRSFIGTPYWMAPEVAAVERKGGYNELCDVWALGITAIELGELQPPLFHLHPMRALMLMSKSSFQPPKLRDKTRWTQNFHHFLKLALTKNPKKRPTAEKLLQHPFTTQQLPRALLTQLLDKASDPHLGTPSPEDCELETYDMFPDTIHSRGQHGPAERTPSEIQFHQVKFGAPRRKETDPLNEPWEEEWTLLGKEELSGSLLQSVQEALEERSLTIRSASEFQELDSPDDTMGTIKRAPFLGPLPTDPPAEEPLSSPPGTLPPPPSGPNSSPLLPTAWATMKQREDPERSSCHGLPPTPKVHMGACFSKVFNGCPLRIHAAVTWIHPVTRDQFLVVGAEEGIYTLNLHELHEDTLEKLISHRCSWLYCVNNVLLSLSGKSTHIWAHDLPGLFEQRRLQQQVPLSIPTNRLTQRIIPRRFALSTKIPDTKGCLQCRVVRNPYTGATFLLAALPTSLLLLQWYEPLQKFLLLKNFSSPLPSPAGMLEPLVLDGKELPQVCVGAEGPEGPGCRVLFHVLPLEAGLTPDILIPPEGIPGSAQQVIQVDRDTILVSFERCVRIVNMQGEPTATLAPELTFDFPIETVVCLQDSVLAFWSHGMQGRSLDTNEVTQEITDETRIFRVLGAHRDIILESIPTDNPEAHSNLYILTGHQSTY
Inhibitor of nuclear factor kappa-B kinase subunit beta (Homo sapiens), sequence (O14920 whole entry): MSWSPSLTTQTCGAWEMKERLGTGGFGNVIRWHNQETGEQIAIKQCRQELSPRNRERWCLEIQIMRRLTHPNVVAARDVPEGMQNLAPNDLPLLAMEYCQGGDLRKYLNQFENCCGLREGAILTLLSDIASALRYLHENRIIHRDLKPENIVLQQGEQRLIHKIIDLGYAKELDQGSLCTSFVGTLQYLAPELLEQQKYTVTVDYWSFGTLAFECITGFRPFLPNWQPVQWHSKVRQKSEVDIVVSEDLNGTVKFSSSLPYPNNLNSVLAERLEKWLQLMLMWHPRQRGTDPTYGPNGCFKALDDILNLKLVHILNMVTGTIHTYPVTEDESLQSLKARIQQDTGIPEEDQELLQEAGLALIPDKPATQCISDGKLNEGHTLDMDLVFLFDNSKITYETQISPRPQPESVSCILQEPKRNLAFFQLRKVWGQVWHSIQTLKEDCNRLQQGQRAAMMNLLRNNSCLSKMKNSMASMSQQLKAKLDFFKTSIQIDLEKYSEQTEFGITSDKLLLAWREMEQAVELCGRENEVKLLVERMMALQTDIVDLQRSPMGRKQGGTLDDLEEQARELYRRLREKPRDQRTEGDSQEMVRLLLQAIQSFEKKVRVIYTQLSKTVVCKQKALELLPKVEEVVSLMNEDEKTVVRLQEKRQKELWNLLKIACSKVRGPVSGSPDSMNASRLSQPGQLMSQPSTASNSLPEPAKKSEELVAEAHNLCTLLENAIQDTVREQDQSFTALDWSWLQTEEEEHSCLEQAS
Sodium-dependent dopamine transporter, sequence (Q01959 whole entry): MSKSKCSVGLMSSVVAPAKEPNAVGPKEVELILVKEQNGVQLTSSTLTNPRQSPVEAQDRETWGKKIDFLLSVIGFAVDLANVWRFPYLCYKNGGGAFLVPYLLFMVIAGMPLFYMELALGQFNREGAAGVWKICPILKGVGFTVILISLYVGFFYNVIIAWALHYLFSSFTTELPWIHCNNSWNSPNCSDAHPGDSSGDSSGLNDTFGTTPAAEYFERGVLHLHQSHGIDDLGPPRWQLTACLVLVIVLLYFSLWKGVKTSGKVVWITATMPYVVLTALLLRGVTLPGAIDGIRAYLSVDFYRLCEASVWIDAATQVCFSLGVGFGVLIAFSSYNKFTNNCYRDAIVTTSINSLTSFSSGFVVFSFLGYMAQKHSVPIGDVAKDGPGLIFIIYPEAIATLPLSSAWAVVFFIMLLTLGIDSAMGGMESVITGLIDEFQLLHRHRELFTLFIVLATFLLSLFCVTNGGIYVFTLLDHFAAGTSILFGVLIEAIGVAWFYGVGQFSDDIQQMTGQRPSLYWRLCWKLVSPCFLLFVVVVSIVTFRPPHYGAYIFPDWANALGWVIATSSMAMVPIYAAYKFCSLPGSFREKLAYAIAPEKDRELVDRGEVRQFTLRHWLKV
Maternal embryonic leucine zipper kinase (Homo sapiens), sequence (Q14680 whole entry, looked up): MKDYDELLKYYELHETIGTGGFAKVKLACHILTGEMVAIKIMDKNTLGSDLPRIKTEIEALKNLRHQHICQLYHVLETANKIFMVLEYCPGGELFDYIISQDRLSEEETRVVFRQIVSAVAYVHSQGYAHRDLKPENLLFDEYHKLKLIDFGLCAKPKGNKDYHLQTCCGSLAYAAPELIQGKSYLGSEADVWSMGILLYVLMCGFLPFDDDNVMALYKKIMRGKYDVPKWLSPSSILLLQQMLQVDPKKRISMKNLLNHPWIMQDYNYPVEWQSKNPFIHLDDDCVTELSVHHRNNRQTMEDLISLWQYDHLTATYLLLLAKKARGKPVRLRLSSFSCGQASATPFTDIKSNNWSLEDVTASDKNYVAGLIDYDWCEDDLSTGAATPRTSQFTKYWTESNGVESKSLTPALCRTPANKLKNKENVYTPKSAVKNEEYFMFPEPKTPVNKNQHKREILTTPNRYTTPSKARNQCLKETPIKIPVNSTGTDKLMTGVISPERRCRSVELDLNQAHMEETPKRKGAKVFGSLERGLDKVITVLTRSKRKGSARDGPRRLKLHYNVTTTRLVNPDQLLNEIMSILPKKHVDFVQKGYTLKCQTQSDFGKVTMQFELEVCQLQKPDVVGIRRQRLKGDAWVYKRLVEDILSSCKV
Serine/threonine-protein kinase PAK 4 (Homo sapiens), sequence (O96013 whole entry, looked up): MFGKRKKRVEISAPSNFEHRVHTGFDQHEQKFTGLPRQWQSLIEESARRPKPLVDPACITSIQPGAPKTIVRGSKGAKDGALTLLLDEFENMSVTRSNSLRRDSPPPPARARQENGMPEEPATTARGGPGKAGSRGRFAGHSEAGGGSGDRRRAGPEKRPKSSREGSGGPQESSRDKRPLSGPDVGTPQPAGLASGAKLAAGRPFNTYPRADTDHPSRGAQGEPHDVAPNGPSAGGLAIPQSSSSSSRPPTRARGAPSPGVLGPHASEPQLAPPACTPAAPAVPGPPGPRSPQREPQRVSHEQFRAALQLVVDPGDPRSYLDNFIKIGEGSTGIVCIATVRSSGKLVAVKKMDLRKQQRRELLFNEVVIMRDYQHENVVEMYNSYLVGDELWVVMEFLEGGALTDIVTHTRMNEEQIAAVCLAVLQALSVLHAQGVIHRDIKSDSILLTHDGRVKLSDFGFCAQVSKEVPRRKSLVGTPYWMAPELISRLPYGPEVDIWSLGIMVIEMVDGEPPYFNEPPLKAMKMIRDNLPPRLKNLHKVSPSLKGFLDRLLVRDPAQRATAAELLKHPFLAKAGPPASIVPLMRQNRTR
Serine/threonine-protein kinase pim-2 (Homo sapiens), sequence (Q9P1W9 whole entry, looked up): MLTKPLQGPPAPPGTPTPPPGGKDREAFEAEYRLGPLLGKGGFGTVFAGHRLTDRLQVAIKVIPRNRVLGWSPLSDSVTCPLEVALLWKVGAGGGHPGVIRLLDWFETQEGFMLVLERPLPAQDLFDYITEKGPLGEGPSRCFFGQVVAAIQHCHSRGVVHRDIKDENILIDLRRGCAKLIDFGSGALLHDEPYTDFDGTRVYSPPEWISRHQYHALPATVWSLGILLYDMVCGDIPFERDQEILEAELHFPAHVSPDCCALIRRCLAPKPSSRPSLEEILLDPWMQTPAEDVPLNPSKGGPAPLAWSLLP

O=C1c2ccc(Nc3ccc(F)cc3F)cc2CCc2ccc(OC[C@H](O)CO)cc21 [Skepinone-L] was tested, and the % Residual activity with Skepinone-L [1] was 94%, the % Residual activity with Skepinone-L [2] was 104% and the % Residual activity with Skepinone-L [3] was 106%. It also gave a % Residual activity with Skepinone-L [4] of 91%, a % Residual activity with Skepinone-L [5] of 95% and a % Residual activity with Skepinone-L [6] of 80%. The % Residual activity with Skepinone-L [7] was 97%, the % Residual activity with Skepinone-L [8] was 95% and the % Residual activity with Skepinone-L [9] was 96%. For the same molecule, the % Residual activity with Skepinone-L [10] was 89%, the % Residual activity with Skepinone-L [11] was 87% and the % Residual activity with Skepinone-L [12] was 145%. The % Residual activity with Skepinone-L [13] was 90%, the inhibition [14] was 40% and the % Residual activity with Skepinone-L [15] was 111%. It also gave a % Residual activity with Skepinone-L [16] of 97%, a % Residual activity with Skepinone-L [17] of 91% and a % Residual activity with Skepinone-L [18] of 89%. The inhibition [19] was 73.1%, the % Residual activity with Skepinone-L [20] was 102% and the % Residual activity with Skepinone-L [21] was 94%. The inhibition [22] was 81.4%, the % Residual activity with Skepinone-L [23] was 91% and the % Residual activity with Skepinone-L [24] was 95%. It also gave a % Residual activity with Skepinone-L [25] of 81%, a % Residual activity with Skepinone-L [26] of 101% and an inhibition [27] of 18.8%. The % Residual activity with Skepinone-L [28] was 96%, the inhibition [29] was -9.25% and the % Residual activity with Skepinone-L [30] was 83%. For the same molecule, the % Residual activity with Skepinone-L [31] was 132%, the IC50 [32] was 40.2 nM (active) and the % Residual activity with Skepinone-L [33] was 113%. For the same molecule, the % Residual activity with Skepinone-L [34] was 104%, the % Residual activity with Skepinone-L [35] was 103% and the inhibition [36] was 39.6%. For the same molecule, the % Residual activity with Skepinone-L [37] was 88%, the % Residual activity with Skepinone-L [38] was 79% and the % Residual activity with Skepinone-L [39] was 99%. It also gave a % Residual activity with Skepinone-L [40] of 85%, a % Residual activity with Skepinone-L [41] of 81% and a % Residual activity with Skepinone-L [42] of 93%. For the same molecule, the % Residual activity with Skepinone-L [43] was 99%, the % Residual activity with Skepinone-L [44] was 102% and the % Residual activity with Skepinone-L [45] was 99%. It also gave a % Residual activity with Skepinone-L [46] of 88%, a % Residual activity with Skepinone-L [47] of 93% and an inhibition [48] of 19.5%. For the same molecule, the % Residual activity with Skepinone-L [49] was 108%.
